One assay has as its target T1, 1D4-tagged WT TRPV2 (Rattus norvegicus, UniProt Q9WUD2).
T1 construct: made in house; host or cells: S. cerevisiae BJ5457, isolated membranes
T1 sequence (Q9WUD2 1-761): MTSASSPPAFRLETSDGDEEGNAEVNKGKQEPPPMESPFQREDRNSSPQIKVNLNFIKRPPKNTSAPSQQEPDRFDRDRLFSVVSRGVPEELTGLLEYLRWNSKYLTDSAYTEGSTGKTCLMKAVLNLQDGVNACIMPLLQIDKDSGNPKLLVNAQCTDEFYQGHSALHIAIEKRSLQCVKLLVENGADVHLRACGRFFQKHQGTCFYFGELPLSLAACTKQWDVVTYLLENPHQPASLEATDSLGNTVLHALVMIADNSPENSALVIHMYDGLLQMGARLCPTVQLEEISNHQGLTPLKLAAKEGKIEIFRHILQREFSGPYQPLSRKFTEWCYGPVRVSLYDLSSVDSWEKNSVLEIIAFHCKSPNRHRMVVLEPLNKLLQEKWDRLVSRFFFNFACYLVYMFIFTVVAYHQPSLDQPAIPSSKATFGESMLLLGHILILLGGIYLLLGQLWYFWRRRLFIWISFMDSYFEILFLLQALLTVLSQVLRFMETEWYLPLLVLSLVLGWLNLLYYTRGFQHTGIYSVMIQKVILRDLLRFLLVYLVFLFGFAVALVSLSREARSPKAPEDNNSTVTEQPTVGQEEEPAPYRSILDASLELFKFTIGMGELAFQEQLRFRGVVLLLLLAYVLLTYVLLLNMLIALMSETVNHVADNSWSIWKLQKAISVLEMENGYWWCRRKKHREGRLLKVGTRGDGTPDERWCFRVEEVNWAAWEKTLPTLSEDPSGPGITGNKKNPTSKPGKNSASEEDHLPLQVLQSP
In words: 3H-RTx binding to yeast membranes containing 1D4-tagged WT TRPV2. An excerpt:
To examine the strength of RTx binding to the TRPV2 channel, we undertook binding assays after expressing 1D4-tagged TRPV2 and TRPV2 QM in S. cerevisiae and isolating yeast membranes, similar to the experiments described above with TRPV1 (Figure 2). […] To examine the relative importance of the four residues for mediating RTx sensitivity in the TRPV2 QM, we constructed triple mutants and evaluated their sensitivity to RTx electrophysiologically.
The full-length TRPV1 and TRPV2 channels with 1D4 affinity tags ([…]) on their C-termini were cloned into the YEpHIS vector and expressed in the BJ5457 strain of S. cerevisiae using the strong constitutively active PMA1 promoter, as previously described ([Moiseenkova-Bell et al., 2008]). After 48 hr of expression at 30°C in YPD media, cells were harvested by centrifugation and re-suspended in PBS buffer, supplemented with complete protease inhibitor cocktail (Roche, Indianapolis, IN) and 4-amidinophenylmethanesulfonyl fluoride hydrochloride (APMSF) (Sigma-Aldrich, St. Louis, MO). Cells were broken by passing through an Avestin homogenizer at the pressure of 35 kpsi, cell lysate was cleared by centrifugation at 8,000 g for 15 min and membranes were isolated by ultracentrifugation at 190,000 g for 1 hr. […]
S. cerevisiae cells overexpressing TRPV1 constructs to be used in ligand binding assays on intact cells (Figure 1E,F) were grown as for small scale expression trials. 24 hr after protein induction cells were spun down at 4000g, the supernatant was removed and the pellet resuspended in 1x PBS, normalizing OD600 to 75 for each sample, and aliquoted for storage at -80°C. ^3H-RTx binding assays on cells were performed at 37°C as previously described ([Feng et al., 2015]), but where non-specific binding of RTx was measured using cells expressing GFP alone. […] Data for binding of RTx to membranes was corrected for non-specific binding, determined using either excess non-radioactive ligand or heat inactivation of the protein, as previously described ([Feng et al., 2015]). […]

The test system of assay [1] is TRPV2 triple mutants containing the F472S mutation. In words: Two-electrode voltage-clamp in Xenopus oocytes, TRPV2 triple mutants containing F472S. It is filed as cell-based, rat. The settings on record: 100 nM RTx, +60 mV, normalized to 4 mM 2-APB. An excerpt: To further investigate the putative vanilloid binding pocket in TRPV1, we inspected the cryo-EM structure of TRPV1, looking for residues that are located nearby to the putative RTx density (Figure 1B; regions/residues highlighted in yellow) and that differ between TRPV1 and TRPV2 channels (Figure 3—figure supplement 1; regions highlighted in magenta). […] To quantify the contribution of each of these residues to TRPV1 channel activation by RTx under our experimental conditions, we mutated each to the corresponding residue in TRPV2. We then expressed each construct in oocytes and used the two electrode voltage-clamp technique to study activation by RTx and by the non-specific TRPV channel activator 2-APB. We recorded time courses for channel activation by each agonist while stepping the membrane potential from −60 to +60 mV every 3 s from a holding potential of 0 mV using an external recording solution containing 100 mM KCl (internal K^+ concentration in a healthy oocyte is 100 mM) (Figure 3A, left). We also recorded current-voltage (I-V) relations by stepping over a wider range of voltages in the absence and presence of activators, or in the presence of ruthenium red (RR), a non-specific inhibitor of TRP channels (Figure 3A, right). […]
For orientation: In two-electrode clamp one electrode senses voltage and the other passes current.

The values that follow come from PMC4907692, “Engineering vanilloid-sensitivity into the rat TRPV2 channel” (eLife, 2016).

On to `C=C(C)[C@]12C[C@@H](C)[C@@]34O[C@](Cc5ccccc5)(O[C@@H]1[C@@H]3C=C(COC(=O)Cc1ccc(O)c(OC)c1)C[C@]1(O)C(=O)C(C)=C[C@@H]41)O2` [RTx, resiniferatoxin], for which the “RTx binding in words” value on 1D4-tagged WT TRPV2 is listed as “weak binding”. Further, the “Hill slope (nH)” value at 1D4-tagged WT TRPV2 (37°C) is 0.9. Also, the Kd (in general, the concentration at which binding is half-saturated) at 1D4-tagged WT TRPV2 (37°C, read-out: Kd of 3H-RTx binding (Hill fit)) is greater than 200 nM. For the same molecule, the “channel activation by RTx” value in assay [1] is “sensitive to RTx”.
